From patent US6914045B2, “Glycopeptide antibiotics” (Wyeth Holdings Corporation, priority 2001, dated 2005)
Converted amounts (≈) assume the structure as drawn. Each block holds one molecule with its values, some of them ahead of it.

Assays:
Assay in all cases: in vitro antibacterial evaluation, MIC by broth dilution
Type in all cases: cell-based
Escherichia coli = conditions: 18 hours at 35° C.
Method in brief: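 Broth dilution MIC per NCCLS M7-A2 in Mueller-Hinton II medium, inoculum 5×10^5 CFU/mL, antibiotic range 64-0.06 μg/mL. MIC taken as lowest concentration inhibiting growth.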

Enterococcus sp. = conditions: broth dilution, 18 hours at 35° C.
Method in brief: (§1)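 Broth dilution per NCCLS M7-A2 in Mueller-Hinton II medium, inoculum 5×10^5 CFU/mL, antibiotic range 64-0.06 μg/mL. MIC taken as lowest concentration inhibiting growth; Gram-positive panel includes recent clinical isolates resistant to methicillin, penicillin and/or vancomycin.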

Streptococcus sp. = conditions: broth dilution, 18 hours at 35° C.
Method in brief: as §1

Staphylococcus sp. = conditions: broth dilution, 18 hours at 35° C.; for MIC Staphylococcus aureus (ATCC 29213): strain ATCC 29213; for MIC Staphylococcus aureus (GC 1131): strain GC 1131; for MIC Staphylococcus aureus (GC 3051): strain GC 3051; for MIC Staphylococcus aureus (GC 3053): strain GC 3053; for MIC Staphylococcus aureus (GC 4541): strain GC 4541; for MIC Staphylococcus aureus (GC 4542): strain GC 4542; for MIC Staphylococcus aureus-SMITH (GC 4543): strain GC 4543; for MIC Staphylococcus aureus (GC 4544): strain GC 4544; for MIC Staphylococcus aureus (GC 4545): strain GC 4545; for MIC Staphylococcus haemolyticus (GC 4546): strain GC 4546; for MIC Coagulase Negative Staphylococcus (GC 4547): strain GC 4547; for MIC Coagulase Negative Staphylococcus (GC 4548): strain GC 4548; for MIC Coagulase Negative Staphylococcus (GC 4549): strain GC 4549; for MIC Coagulase Negative Staphylococcus (GC 4551): strain GC 4551
Method in brief: as §1

MIC Escherichia coli (ATCC 25922) (Escherichia coli; strain ATCC 25922, broth dilution): >128 µg/mL | MIC Escherichia coli (GC 4559) (Escherichia coli; strain GC 4559, broth dilution): >128 µg/mL | MIC Escherichia coli (GC 4560) (Escherichia coli; strain GC 4560, broth dilution): 128 µg/mL (≈ 121 µM) | MIC Enterococcus faecalis (ATCC 29212) (Enterococcus sp.; strain ATCC 29212): >128 µg/mL | MIC Enterococcus faecalis (GC 2242) (Enterococcus sp.; strain GC 2242): >128 µg/mL | MIC Enterococcus faecium (GC 2243) (Enterococcus sp.; strain GC 2243): >128 µg/mL | MIC Enterococcus faecalis (GC 2691) (Enterococcus sp.; strain GC 2691): >128 µg/mL | MIC Enterococcus faecalis (GC 3059) (Enterococcus sp.; strain GC 3059): >128 µg/mL | MIC Enterococcus faecalis (GC 4552) (Enterococcus sp.; strain GC 4552): >128 µg/mL | MIC Enterococcus faecalis (GC 4553) (Enterococcus sp.; strain GC 4553): >128 µg/mL | MIC Enterococcus faecalis (GC 4554) (Enterococcus sp.; strain GC 4554): >128 µg/mL | MIC Enterococcus faecium (GC 4556) (Enterococcus sp.; strain GC 4556): >128 µg/mL | MIC Enterococcus faecium (GC 4557) (Enterococcus sp.; strain GC 4557): >128 µg/mL | MIC Enterococcus avium (GC 4558) (Enterococcus sp.; strain GC 4558): 128 µg/mL (≈ 121 µM) | MIC Enterococcus faecalis (GC 6189) (Enterococcus sp.; strain GC 6189): >128 µg/mL | MIC Streptococcus pneumoniae (ATCC 6301) (Streptococcus sp.; strain ATCC 6301): >128 µg/mL | MIC Streptococcus pneumoniae (GC 1894) (Streptococcus sp.; strain GC 1894): 128 µg/mL (≈ 121 µM) | MIC Streptococcus pyogenes (GC 4563) (Streptococcus sp.; strain GC 4563): >128 µg/mL | MIC Streptococcus agalactiae (GC 4564) (Streptococcus sp.; strain GC 4564): 128 µg/mL (≈ 121 µM) | MIC Streptococcus pneumoniae (GC 4565) (Streptococcus sp.; strain GC 4565): 64 µg/mL (≈ 60.6 µM) | MIC Staphylococcus aureus (ATCC 29213) (Staphylococcus sp.): >128 µg/mL | MIC Staphylococcus aureus (GC 1131) (Staphylococcus sp.): >128 µg/mL | MIC Staphylococcus aureus (GC 3051) (Staphylococcus sp.): >128 µg/mL | MIC Staphylococcus aureus (GC 3053) (Staphylococcus sp.): >128 µg/mL | MIC Staphylococcus aureus (GC 4541) (Staphylococcus sp.): >128 µg/mL | MIC Staphylococcus aureus (GC 4542) (Staphylococcus sp.): >128 µg/mL | MIC Staphylococcus aureus-SMITH (GC 4543) (Staphylococcus sp.): >128 µg/mL | MIC Staphylococcus aureus (GC 4544) (Staphylococcus sp.): >128 µg/mL | MIC Staphylococcus aureus (GC 4545) (Staphylococcus sp.): >128 µg/mL | MIC Coagulase Negative Staphylococcus (GC 4547) (Staphylococcus sp.): >128 µg/mL | MIC Coagulase Negative Staphylococcus (GC 4548) (Staphylococcus sp.): >128 µg/mL | MIC Coagulase Negative Staphylococcus (GC 4549) (Staphylococcus sp.): >128 µg/mL | MIC Coagulase Negative Staphylococcus (GC 4551) (Staphylococcus sp.): >128 µg/mL | MIC Coagulase Negative Staphylococcus (GC 6257) (Staphylococcus sp.; strain GC 6257): >128 µg/mL
SMILES: CC(C)C(=O)Nc1cc(CC2NC(=O)C(C(C)c3ccccc3)NC(=O)CNC(=O)C(CO)NC(=O)C(C(O)C3CNC(=N)N3C3OC(CO)C(O)C(O)C3O)NC(=O)C(C(O)C3CNC(=N)N3)NC2=O)ccc1O (stereo not drawn) [Example 15, Cyclo[glycyl-β-methylphenylalanyl-3-(2-methylpropanamido)tyrosyl-3-(2-iminoimidazolidin-4-yl)seryl-3-(3-hexopyranosyl-2-iminoimidazolidin-4-yl)serylseryl]]
MIC Staphylococcus haemolyticus (GC 4546) (Staphylococcus sp.): >128 µg/mL

MIC Escherichia coli (ATCC 25922) (Escherichia coli): 64 µg/mL (≈ 44.8 µM) | MIC Escherichia coli (GC 4559) (Escherichia coli): 64 µg/mL (≈ 44.8 µM) | MIC Escherichia coli (GC 4560) (Escherichia coli): 2 µg/mL (≈ 1.4 µM) | MIC Enterococcus avium (GC 4558) (Enterococcus sp.): 2 µg/mL (≈ 1.4 µM) | MIC Enterococcus faecalis (ATCC 29212) (Enterococcus sp.): 2 µg/mL (≈ 1.4 µM) | MIC Enterococcus faecalis (GC 2242) (Enterococcus sp.): 2 µg/mL (≈ 1.4 µM) | MIC Enterococcus faecalis (GC 2691) (Enterococcus sp.): 2 µg/mL (≈ 1.4 µM) | MIC Enterococcus faecalis (GC 3059) (Enterococcus sp.): 2 µg/mL (≈ 1.4 µM) | MIC Enterococcus faecalis (GC 4552) (Enterococcus sp.): 2 µg/mL (≈ 1.4 µM) | MIC Enterococcus faecalis (GC 4553) (Enterococcus sp.): 2 µg/mL (≈ 1.4 µM) | MIC Enterococcus faecalis (GC 4554) (Enterococcus sp.): 2 µg/mL (≈ 1.4 µM) | MIC Enterococcus faecalis (GC 6189) (Enterococcus sp.): 2 µg/mL (≈ 1.4 µM) | MIC Enterococcus faecium (GC 2243) (Enterococcus sp.): 1 µg/mL (≈ 0.7 µM) | MIC Enterococcus faecium (GC 4556) (Enterococcus sp.): 2 µg/mL (≈ 1.4 µM) | MIC Enterococcus faecium (GC 4557) (Enterococcus sp.): 2 µg/mL (≈ 1.4 µM) | MIC Enterococcus faecalis (ATCC 29212) (Enterococcus sp.; inoculum 5×10^5 CFU/mL, strain ATCC 29212): 2 µg/mL (≈ 1.4 µM) | MIC Enterococcus faecalis (GC 2242) (Enterococcus sp.; inoculum 5×10^5 CFU/mL, strain GC 2242): 2 µg/mL (≈ 1.4 µM) | MIC Enterococcus faecium (GC 2243) (Enterococcus sp.; inoculum 5×10^5 CFU/mL, strain GC 2243): 1 µg/mL (≈ 0.7 µM) | MIC Enterococcus faecalis (GC 2691) (Enterococcus sp.; inoculum 5×10^5 CFU/mL, strain GC 2691): 2 µg/mL (≈ 1.4 µM) | MIC Enterococcus faecalis (GC 3059) (Enterococcus sp.; inoculum 5×10^5 CFU/mL, strain GC 3059): 2 µg/mL (≈ 1.4 µM) | MIC Enterococcus faecalis (GC 4552) (Enterococcus sp.; inoculum 5×10^5 CFU/mL, strain GC 4552): 2 µg/mL (≈ 1.4 µM) | MIC Enterococcus faecalis (GC 4553) (Enterococcus sp.; inoculum 5×10^5 CFU/mL, strain GC 4553): 2 µg/mL (≈ 1.4 µM) | MIC Enterococcus faecalis (GC 4554) (Enterococcus sp.; inoculum 5×10^5 CFU/mL, strain GC 4554): 2 µg/mL (≈ 1.4 µM) | MIC Enterococcus faecium (GC 4556) (Enterococcus sp.; inoculum 5×10^5 CFU/mL, strain GC 4556): 2 µg/mL (≈ 1.4 µM) | MIC Enterococcus faecium (GC 4557) (Enterococcus sp.; inoculum 5×10^5 CFU/mL, strain GC 4557): 2 µg/mL (≈ 1.4 µM) | MIC Enterococcus avium (GC 4558) (Enterococcus sp.; inoculum 5×10^5 CFU/mL, strain GC 4558): 2 µg/mL (≈ 1.4 µM) | MIC Enterococcus faecalis (GC 6189) (Enterococcus sp.; inoculum 5×10^5 CFU/mL, strain GC 6189): 2 µg/mL (≈ 1.4 µM) | MIC Streptococcus agalactiae (GC 4564) (Streptococcus sp.): <0.12 µg/mL | MIC Streptococcus pneumoniae (ATCC 6301) (Streptococcus sp.): <0.12 µg/mL | MIC Streptococcus pneumoniae (GC 1894) (Streptococcus sp.): <0.12 µg/mL | MIC Streptococcus pneumoniae (GC 4565) (Streptococcus sp.): <0.12 µg/mL | MIC Streptococcus pyogenes (GC 4563) (Streptococcus sp.): <0.12 µg/mL | MIC Streptococcus pneumoniae (ATCC 6301) (Streptococcus sp.; inoculum 5×10^5 CFU/mL, strain ATCC 6301): <0.12 µg/mL | MIC Streptococcus pneumoniae (GC 1894) (Streptococcus sp.; inoculum 5×10^5 CFU/mL, strain GC 1894): <0.12 µg/mL | MIC Streptococcus pyogenes (GC 4563) (Streptococcus sp.; inoculum 5×10^5 CFU/mL, strain GC 4563): <0.12 µg/mL | MIC Streptococcus agalactiae (GC 4564) (Streptococcus sp.; inoculum 5×10^5 CFU/mL, strain GC 4564): <0.12 µg/mL | MIC Streptococcus pneumoniae (GC 4565) (Streptococcus sp.; inoculum 5×10^5 CFU/mL, strain GC 4565): <0.12 µg/mL | MIC Staphylococcus aureus (ATCC 29213) (Staphylococcus sp.): 2 µg/mL (≈ 1.4 µM) | MIC Staphylococcus aureus (GC 1131) (Staphylococcus sp.): 1 µg/mL (≈ 0.7 µM) | MIC Staphylococcus aureus (GC 3051) (Staphylococcus sp.): 32 µg/mL (≈ 22.4 µM) | MIC Staphylococcus aureus (GC 3053) (Staphylococcus sp.): 2 µg/mL (≈ 1.4 µM) | MIC Staphylococcus aureus (GC 4541) (Staphylococcus sp.): 2 µg/mL (≈ 1.4 µM) | MIC Staphylococcus aureus (GC 4542) (Staphylococcus sp.): 1 µg/mL (≈ 0.7 µM) | MIC Staphylococcus aureus-SMITH (GC 4543) (Staphylococcus sp.): 0.5 µg/mL (≈ 0.35 µM) | MIC Staphylococcus aureus (GC 4544) (Staphylococcus sp.): 1 µg/mL (≈ 0.7 µM) | MIC Staphylococcus aureus (GC 4545) (Staphylococcus sp.): 2 µg/mL (≈ 1.4 µM) | MIC Coagulase Negative Staphylococcus (GC 4547) (Staphylococcus sp.): 1 µg/mL (≈ 0.7 µM) | MIC Coagulase Negative Staphylococcus (GC 4548) (Staphylococcus sp.): 1 µg/mL (≈ 0.7 µM) | MIC Coagulase Negative Staphylococcus (GC 4549) (Staphylococcus sp.): 0.5 µg/mL (≈ 0.35 µM) | MIC Coagulase Negative Staphylococcus (GC 4551) (Staphylococcus sp.): 1 µg/mL (≈ 0.7 µM)
SMILES: CC(c1ccccc1)C1NC(=O)CNC(=O)C(CO)NC(=O)C(C(O)C2CNC(=N)N2C2OC(CO)C(O)C(O)C2O)NC(=O)C(C(O)C2CNC(=N)N2)NC(=O)C(Cc2ccc(OC3OC(CO)C(OC4OC5COC6(CC7CCC6(C)C7(C)C)OC5C(O)C4O)C(O)C3O)cc2)NC1=O (centres unmarked) [Example 214]
MIC Staphylococcus haemolyticus (GC 4546) (Staphylococcus sp.): 1 µg/mL (≈ 0.7 µM)
